Measurements from patent US9668979B2, “Piperaquine microcapsules and compositions containing them” (ADARE PHARMACEUTICALS S.R.L., priority 2013, dated 2017).

Experiment: Compatibility of piperaquine with the coacervation process (heating/cooling cycles; assay, Karl Fischer, XRPD)
Assay type: physicochemical
Settings: heating/cooling cycles mimicking the process
Description: Water content: Karl Fischer titration: Ph. Eur. 2.5.12 Method; following sample titration conditions are applied: sample solvent: methanol: formamide 1:1; sample weight: 50 mg; the value of water content in a sample is expressed as % w/w. X-Ray Powder Diffraction (XRPD) measurements are performed on a Philips X′Pert PRO diffractometer (Bragg-Brentano geometry). A compatibility study is carried out on piperaquine to assess the compatibility of the drug with the coacervation process. In particular, piperaquine undergoes heating/cooling cycles mimicking thermal excursions of the process. Then, the following tests are performed both before and after thermal cycles to ascertain the stability of piperaquine: water content analysis (Karl Fisher test); effect of mechanical stress; crystalline structure by XRPD.

Effect of heating/cooling cycle on the drug: not affected by heating/cooling cycle
SMILES: Clc1ccc2c(N3CCN(CCCN4CCN(c5ccnc6cc(Cl)ccc56)CC4)CC3)ccnc2c1 [PQP•4H2O, 4,4′-(1,3-propanediyldi-4,1-piperazinediyl) bis(7-chloroquinoline) phosphate hydrate (1:4:4)]
